Experimental data: ChEMBL document CHEMBL5291721, “A preclinical secondary pharmacology resource illuminates target-adverse drug reaction associations of marketed drugs” (Nat Commun, 2023)

Legend:
Adenosine receptor A1 = molecular target: T1, Adenosine receptor A1 (Homo sapiens, UniProt P30542)
T1 sequence (P30542 whole entry): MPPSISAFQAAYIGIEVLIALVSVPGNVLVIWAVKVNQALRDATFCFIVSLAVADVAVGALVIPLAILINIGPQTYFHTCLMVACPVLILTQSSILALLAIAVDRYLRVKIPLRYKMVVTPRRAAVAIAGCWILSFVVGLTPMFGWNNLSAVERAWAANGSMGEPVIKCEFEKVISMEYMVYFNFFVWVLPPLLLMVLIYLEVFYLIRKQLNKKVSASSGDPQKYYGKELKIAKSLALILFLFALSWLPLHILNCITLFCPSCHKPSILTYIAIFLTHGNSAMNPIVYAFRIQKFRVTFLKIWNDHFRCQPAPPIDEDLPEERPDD

[1] = molecular target: T2, Peroxisome proliferator-activated receptor gamma (Homo sapiens, UniProt P37231); assay type: functional
T2 sequence (P37231 whole entry): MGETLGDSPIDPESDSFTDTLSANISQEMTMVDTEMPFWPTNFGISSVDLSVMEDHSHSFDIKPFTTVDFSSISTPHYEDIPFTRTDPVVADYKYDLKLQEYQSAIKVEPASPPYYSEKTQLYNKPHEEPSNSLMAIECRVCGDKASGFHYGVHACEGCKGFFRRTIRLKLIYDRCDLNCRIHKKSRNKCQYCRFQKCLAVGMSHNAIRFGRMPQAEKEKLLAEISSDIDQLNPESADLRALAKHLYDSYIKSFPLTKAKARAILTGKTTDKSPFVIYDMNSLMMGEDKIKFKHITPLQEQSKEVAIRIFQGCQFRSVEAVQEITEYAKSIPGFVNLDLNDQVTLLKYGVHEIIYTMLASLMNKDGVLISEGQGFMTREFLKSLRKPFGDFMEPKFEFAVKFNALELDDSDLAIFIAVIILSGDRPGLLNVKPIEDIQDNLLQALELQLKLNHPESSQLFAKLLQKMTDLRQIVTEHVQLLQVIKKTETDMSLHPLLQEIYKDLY

[2] = molecular target: Vascular endothelial growth factor receptor 2 (Homo sapiens, UniProt P35968); assay type: functional
Sequence of Vascular endothelial growth factor receptor 2 (P35968 whole entry): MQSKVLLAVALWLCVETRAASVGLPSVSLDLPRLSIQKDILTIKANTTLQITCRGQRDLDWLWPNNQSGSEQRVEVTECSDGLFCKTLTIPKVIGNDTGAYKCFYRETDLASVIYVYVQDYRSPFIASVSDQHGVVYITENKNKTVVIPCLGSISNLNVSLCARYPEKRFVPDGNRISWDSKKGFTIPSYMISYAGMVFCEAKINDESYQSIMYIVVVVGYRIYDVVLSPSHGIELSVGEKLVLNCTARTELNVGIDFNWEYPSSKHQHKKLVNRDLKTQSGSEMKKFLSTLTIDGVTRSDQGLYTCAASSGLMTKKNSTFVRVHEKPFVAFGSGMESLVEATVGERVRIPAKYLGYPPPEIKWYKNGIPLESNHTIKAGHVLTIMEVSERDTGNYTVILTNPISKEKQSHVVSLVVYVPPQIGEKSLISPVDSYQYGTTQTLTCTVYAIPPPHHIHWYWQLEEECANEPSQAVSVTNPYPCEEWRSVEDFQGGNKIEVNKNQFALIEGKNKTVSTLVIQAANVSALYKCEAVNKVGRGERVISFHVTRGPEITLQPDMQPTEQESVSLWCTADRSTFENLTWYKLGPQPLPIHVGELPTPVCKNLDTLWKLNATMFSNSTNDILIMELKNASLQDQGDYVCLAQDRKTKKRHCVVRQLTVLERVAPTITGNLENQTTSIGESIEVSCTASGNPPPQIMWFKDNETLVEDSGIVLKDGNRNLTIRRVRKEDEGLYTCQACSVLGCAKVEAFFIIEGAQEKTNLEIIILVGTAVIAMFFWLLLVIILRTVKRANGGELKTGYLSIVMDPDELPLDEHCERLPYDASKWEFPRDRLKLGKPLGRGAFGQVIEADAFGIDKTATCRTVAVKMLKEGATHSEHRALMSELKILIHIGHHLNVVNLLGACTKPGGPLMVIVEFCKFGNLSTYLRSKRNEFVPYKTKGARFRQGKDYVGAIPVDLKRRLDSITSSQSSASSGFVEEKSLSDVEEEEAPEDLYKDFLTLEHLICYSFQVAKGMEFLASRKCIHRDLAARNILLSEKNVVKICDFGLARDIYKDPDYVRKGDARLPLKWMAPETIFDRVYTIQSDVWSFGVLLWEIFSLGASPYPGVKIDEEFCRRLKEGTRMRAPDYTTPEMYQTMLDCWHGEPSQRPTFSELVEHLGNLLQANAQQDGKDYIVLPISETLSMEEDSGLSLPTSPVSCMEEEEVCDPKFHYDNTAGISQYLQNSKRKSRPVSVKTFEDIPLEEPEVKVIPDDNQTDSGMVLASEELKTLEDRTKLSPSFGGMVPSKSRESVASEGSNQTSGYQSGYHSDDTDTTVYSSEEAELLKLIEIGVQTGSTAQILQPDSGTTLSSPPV

Estrogen receptor = molecular target: T3, Estrogen receptor (Homo sapiens, UniProt P03372); assay type: functional
T3 sequence (P03372 whole entry): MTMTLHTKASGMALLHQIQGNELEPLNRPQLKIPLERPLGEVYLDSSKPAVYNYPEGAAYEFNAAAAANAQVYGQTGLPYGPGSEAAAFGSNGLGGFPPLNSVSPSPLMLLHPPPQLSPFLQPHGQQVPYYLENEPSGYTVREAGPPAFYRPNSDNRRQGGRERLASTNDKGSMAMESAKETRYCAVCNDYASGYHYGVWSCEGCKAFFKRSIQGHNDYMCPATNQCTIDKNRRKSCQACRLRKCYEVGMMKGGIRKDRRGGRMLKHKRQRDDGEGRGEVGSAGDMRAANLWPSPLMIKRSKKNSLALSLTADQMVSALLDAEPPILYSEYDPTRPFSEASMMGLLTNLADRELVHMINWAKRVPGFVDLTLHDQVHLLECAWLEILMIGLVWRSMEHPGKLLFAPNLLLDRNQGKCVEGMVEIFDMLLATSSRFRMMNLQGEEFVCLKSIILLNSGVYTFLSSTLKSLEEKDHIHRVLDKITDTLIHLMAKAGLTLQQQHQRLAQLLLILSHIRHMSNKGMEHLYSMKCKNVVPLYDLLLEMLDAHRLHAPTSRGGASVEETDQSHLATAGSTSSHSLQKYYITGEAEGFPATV

[3] = molecular target: Epidermal growth factor receptor (Homo sapiens, UniProt P00533); assay type: functional
Sequence of Epidermal growth factor receptor (P00533 whole entry): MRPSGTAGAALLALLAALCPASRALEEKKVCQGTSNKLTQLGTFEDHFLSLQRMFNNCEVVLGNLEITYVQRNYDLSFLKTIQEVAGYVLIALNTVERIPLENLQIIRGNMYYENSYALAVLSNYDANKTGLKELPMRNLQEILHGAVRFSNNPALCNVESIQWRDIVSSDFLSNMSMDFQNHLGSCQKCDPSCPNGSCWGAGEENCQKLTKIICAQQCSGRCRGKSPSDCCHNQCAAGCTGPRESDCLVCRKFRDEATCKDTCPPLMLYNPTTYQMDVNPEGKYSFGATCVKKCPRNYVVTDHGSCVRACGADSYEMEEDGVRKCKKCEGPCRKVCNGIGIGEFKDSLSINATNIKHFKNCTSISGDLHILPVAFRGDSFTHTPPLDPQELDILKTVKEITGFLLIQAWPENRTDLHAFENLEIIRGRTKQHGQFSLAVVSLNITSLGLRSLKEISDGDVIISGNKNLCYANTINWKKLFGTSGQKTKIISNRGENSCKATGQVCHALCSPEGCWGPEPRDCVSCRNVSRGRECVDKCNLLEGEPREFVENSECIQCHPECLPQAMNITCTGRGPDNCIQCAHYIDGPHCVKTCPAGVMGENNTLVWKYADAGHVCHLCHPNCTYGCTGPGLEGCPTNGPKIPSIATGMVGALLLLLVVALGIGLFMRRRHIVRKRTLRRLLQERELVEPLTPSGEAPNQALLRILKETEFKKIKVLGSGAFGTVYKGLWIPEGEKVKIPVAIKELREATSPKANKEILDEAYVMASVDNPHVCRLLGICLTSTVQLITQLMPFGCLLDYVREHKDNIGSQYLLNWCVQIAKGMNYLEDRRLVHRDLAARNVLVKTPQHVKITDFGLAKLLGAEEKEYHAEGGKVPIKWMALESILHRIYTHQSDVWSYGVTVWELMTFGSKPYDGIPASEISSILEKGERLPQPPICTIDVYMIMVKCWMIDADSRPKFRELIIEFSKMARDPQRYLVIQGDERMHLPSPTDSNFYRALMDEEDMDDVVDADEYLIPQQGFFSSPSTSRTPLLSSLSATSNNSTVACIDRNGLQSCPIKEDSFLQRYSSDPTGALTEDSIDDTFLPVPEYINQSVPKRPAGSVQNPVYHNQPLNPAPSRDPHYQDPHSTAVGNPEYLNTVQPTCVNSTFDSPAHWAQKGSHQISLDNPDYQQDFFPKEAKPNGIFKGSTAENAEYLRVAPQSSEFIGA
Note: assay procedure not described here.

SMILES | AC50 (Adenosine receptor A1) [µM] | AC50 [1] [µM] | AC50 [2] [µM] | AC50 (Estrogen receptor) [µM] | AC50 [3] [µM]
C[C@H](Nc1ncnc2[nH]cnc12)c1cc2cccc(Cl)c2c(=O)n1-c1ccccc1 [DUVELISIB] | > 30 | > 30 | > 30 | > 30 | > 30
O=C1[C@@H]2[C@H]3CC[C@H](C3)[C@@H]2C(=O)N1C[C@@H]1CCCC[C@H]1CN1CCN(c2nsc3ccccc23)CC1 [LURASIDONE] |  | > 30 | > 30 | > 30 | > 30
CO[C@@H]1[C@@H](OC(N)=O)[C@@H](O)[C@H](Oc2ccc3c(O)c(NC(=O)c4ccc(O)c(CC=C(C)C)c4)c(=O)oc3c2C)OC1(C)C [NOVOBIOCIN] |  | > 30 | 25 | > 30 | > 30
COc1cc2c(cc1OC)C1CC(=O)C(CC(C)C)CN1CC2 (stereo not given) [TETRABENAZINE] |  | > 30 | > 30 | > 30 | > 30
c1cnc2cc3c(cc2n1)[C@@H]1CNC[C@H]3C1 [VARENICLINE] |  | > 30 | > 30 | > 30 | > 30
Nc1c2c(nc3ccccc13)CCCC2O (stereo not given) [VELNACRINE] |  | > 30 | > 30 | > 30 | > 30
